Patent US20140357512A1, “HISTONE DEACETYLASE (HDAC) BIOMARKERS IN MULTIPLE MYELOMA” (priority 2013, published 2014)

Test system: human myeloma cell line MM.1S
Assay: SILAC acetylated-lysine peptide profiling, HDAC inhibitor vs DMSO (light/heavy ratio)
Format: cell-based
Source text: An embodiment of the invention comprises utilizing the SILAC method in order to quantitate changes in protein expression between two or more populations of cells. The SILAC method is a technique based on mass spectrometry that detects differences in protein abundance among samples using non-radioactive isotopic labeling. The SILAC method is known in the art, and described in detail in Ong et al., “Stable Isotope Labeling by Amino Acids in Cell Culture, SILAC, as a Simple and Accurate Approach to Expression Proteomics”, Molecular & Cellular Proteomics, vol. 1, pp. 376-386 (2002), which is incorporated herein by reference in its entirety.
Briefly, the SILAC method involves growing two populations of cells in cell culture. The first population of cells is grown in growth media containing normal amino acids (“normal media”). The second population of cells is grown in media lacking a standard essential amino acid (such as lysine), but is then supplemented with a non-radioactive, isotopically labeled form of that essential amino acid (such as lysine labeled with ^13C atoms, rather than normal ^12C atoms), which is called “heavy media”. When the two populations of cells are each growing in the medium, they incorporate the amino acids into all of their proteins. The growth of cells maintained in the heavy media is no different from that in normal media. All peptides containing the heavy amino acids are heavier than their normal counterparts. The cells from each of the two populations of cells are lysed. The lysates from each of the two cell populations are then combined. The combined cell lysates are then analyzed by mass spectrometry. Pairs of chemically identical peptides of different stable isotope composition can be differentiated in a mass spectrometer due to their difference in mass. The ratio of peak intensities in the mass spectrum for such peptide pairs reflects the abundance ratio for the two proteins.
This example describes SILAC studies that were performed to compare the effects of three different HDAC inhibitors (Compound A, Compound B, and tubastatin A) to a control on a human multiple myeloma cell line. The HDAC inhibitors were also compared amongst themselves to determine differences in their effects.
A human myeloma cell line MM.1S was grown using either ^12C (light) or ^13C (heavy) lysine containing culture medium. The “heavy” cells were treated with DMSO as the control, and the “light” cells were treated with a single HDAC inhibitor at 37° C. for 6 hours. The heavy and light cells were lysed, and the lysates were mixed in 1:1 ratio and digested with the protease trypsin. The acetylated lysine containing peptides (due to the action of the HDAC inhibitor) in the digested peptide pool were captured by a non-specific anti-acetylated lysine antibody cocktail (the antibodies identify both light and heavy acetylated peptides), and subjected to mass spectrometry analysis in order to identify thousands of individual peptides.
Thousands of peptides were identified in pairs (^12C and ^13C) due to their known mass differences. The amino acid sequence and quantitative ratio (Light/Heavy) of a given peptide in two differentially treated cell lysates were then determined and annotated with their possible protein (gene) sources.
As stated above, three HDAC inhibitors (Compound A, Compound B, and Tubastatin A) were used. Thus, the SILAC method was performed three times, with a different HDAC inhibitor compared to a control each time. Accordingly, there are three pairs of quantitative data in the table below, i.e., Compound A:DMSO, Compound B:DMSO, and Tubastatin A:DMSO. A cut-off of 1.30 fold of change (increase or decrease) was then used to determine “changed” or “+” in the table, and any peptides with a fold of change less than 1.3 fold were determined to be “unchanged” or “0” in the table. Those peptides that were not identified were marked as “NA” in the table. […]

SMILES: O=C(NO)c1cnc(NC2(c3cccc(F)c3)CCCCC2)nc1 [Compound B, 2-((1-(3-fluorophenyl)cyclohexyl)amino)-N-hydroxypyrimidine-5-carboxamide]
- L/H ratio of acetylated peptide ([…](ac)HLSASQK (SEQ ID NO: 381), Cytochrome c oxidase subunit 4 isoform 1 mitochondrial [53], COX4I1): −0.63 log 2
- light to heavy ratio (L/H ratio) of acetylated peptide, log 2 scale ([…](ac)IFK (SEQ ID NO: 157), cDNA FLJ59630 highly similar to Growth hormone-inducible transmembrane protein [76], GHITM): 0.00
- light to heavy ratio (L/H ratio) of acetylated peptide, log 2 scale ([…](ac)IVIQK (SEQ ID NO: 165), Isoform A1-B of Heterogeneous nuclear ribonucleoprotein A1 [161], HNRNPA1): 0.00
- light to heavy ratio (L/H ratio) of acetylated peptide, log 2 scale ([…](ac)K (SEQ ID NO: 242), Vimentin [235], VIM): 0.00
- L/H ratio of acetylated peptide ([…](ac)K (SEQ ID NO: 427), Profilin-1 [126], PFN1): 0.58 log 2
- light to heavy ratio (L/H ratio) of acetylated peptide, log 2 scale ([…](ac)LFR (SEQ ID NO: 136), B-cell receptor-associated protein 31 [95], BCAP31): 0.00
- L/H ratio of acetylated peptide ([…](ac)LHIVK (SEQ ID NO: 378), Chloride intracellular channel protein 4 [194], CLIC4): 0.51 log 2
- light to heavy ratio (L/H ratio) of acetylated peptide, log 2 scale ([…](ac)LLPHIR (SEQ ID NO: 208), 60S acidic ribosomal protein P0 [77], RPLP0): 0.00
- L/H ratio of acetylated peptide ([…](ac)VNSK (SEQ ID NO: 430), Isoform 1 of Inorganic pyrophosphatase 2 mitochondrial [69], PPA2): 0.91 log 2
- L/H ratio of acetylated peptide ([…](ac)WK (SEQ ID NO: 453), Lupus La protein [328], SSB): 0.57 log 2
- L/H ratio of acetylated peptide ([…](ac)YLNFVK (SEQ ID NO: 405), Endoplasmin [428], HSP90B1): 0.77 log 2
- L/H ratio of acetylated peptide ([…](ac)YQEALAK (SEQ ID NO: 450), Superoxide dismutase [Mn] mitochondrial [68], SOD2): −0.67 log 2
- light to heavy ratio (L/H ratio) of acetylated peptide, log 2 scale ([…](ac)[…] (SEQ ID NO: 132), ATP synthase subunit b mitochondrial [221], ATP5F1): 0.00
- light to heavy ratio (L/H ratio) of acetylated peptide, log 2 scale ([…](ac)[…] (SEQ ID NO: 139), cDNA FLJ55574 highly similar to Calnexin [217], CANX): 0.00
- light to heavy ratio (L/H ratio) of acetylated peptide, log 2 scale ([…](ac)[…] (SEQ ID NO: 145), Isoform 1 of Cellular nucleic acid-binding protein [118], CNBP): 0.00
- L/H ratio of acetylated peptide ([…](ac)[…] (SEQ ID NO: 372), Calreticulin [98], CALR): −0.43 log 2
- L/H ratio of acetylated peptide ([…](ac)[…] (SEQ ID NO: 387), D-dopachrome decarboxylase [87], DDT): −0.44 log 2
- L/H ratio of acetylated peptide ([…](ac)[…] (SEQ ID NO: 399), Guanine nucleotide-binding protein subunit beta-2-like 1 [139], GNB2L1): 0.54 log 2
- L/H ratio of acetylated peptide ([…](ac)[…] (SEQ ID NO: 408), Isoform 1 of Isocitrate dehydro-genase [NAD] subunit alpha mitochondrial [77], IDH3A): −0.44 log 2
- L/H ratio of acetylated peptide ([…](ac)[…] (SEQ ID NO: 455), Isoform 1 of Translocon-associated protein subunit alpha [102], SSR1): −0.88 log 2
- L/H ratio of acetylated peptide ([…](ac)[…] (SEQ ID NO: 466), Voltage-dependent anion-selective channel protein 1 [266], VDAC1): −0.66 log 2
- L/H ratio of acetylated peptide ([…](ac)[…] (SEQ ID NO: 469), Isoform 1 of Voltage-dependent anion-selective channel protein 3 [266], VDAC3): −0.71 log 2
- light to heavy ratio (L/H ratio) of acetylated peptide YDGK(ac)WEVEEMK (SEQ ID NO: 274) (cDNA FLJ55574 highly similar to Calnexin [138], CANX, drug:DMSO): 0.00 log 2
- light to heavy ratio (L/H ratio) of acetylated peptide LNK(ac)PFLFDTK (SEQ ID NO: 327) (cDNA FLJ55574 highly similar to Calnexin [172], CANX, drug:DMSO): 0.43 log 2
- light to heavy ratio (L/H ratio) of acetylated peptide NFK(ac)SISK (SEQ ID NO: 356) (cDNA FLJ56425 highly similar to Very-long-chain specific acyl-CoAdehydrogenase mitochondrial [681], ACADVL, drug:DMSO): 0.44 log 2
- light to heavy ratio (L/H ratio) of acetylated peptide LPSSTK(ac)SGWPR (SEQ ID NO: 500) (cDNA FLJ75110 highly similar to Homo sapiens PHD finger protein 15 (PHF15) mRNA [38], gene PHF15, inhibitor:DMSO): 0.00 log 2
- light to heavy ratio (L/H ratio) of acetylated peptide IINEVSK(ac)[…] (SEQ ID NO: 341) (cDNA FLJ77177 highly similar to Homo sapiens arginine-rich mutated in early stage tumors (ARMET) mRNA [97], MANF, drug:DMSO): −0.58 log 2
- light to heavy ratio (L/H ratio) of acetylated peptide TNVPVK(ac)LFAR (SEQ ID NO: 348) (cDNA FLJ77422 highly similar to Homo sapiens RNA binding protein autoantigenic (hnRNP-associated with lethal yellow homolog (mouse)) transcript variant 1 mRNA (Fragment) [165], RALY, drug:DMSO): 0.39 log 2
- light to heavy ratio (L/H ratio) of acetylated peptide EIAQEFK(ac)TDLR (SEQ ID NO: 337) (histone cluster 2 H3 pseudogene 2 [80], HIST2H3PS2, drug:DMSO): −0.49 log 2
- light to heavy ratio (L/H ratio) of acetylated peptide SK(ac)SDPIMLLK (SEQ ID NO: 255) (pyruvate dehydrogenase E1 component subunit alpha somatic form mitochondrial isoform 2 precursor [351], PDHA1, drug:DMSO): 0.00 log 2
- light to heavy ratio (L/H ratio) of acetylated peptide VTNLLMLK(ac)GK (SEQ ID NO: 350) (regulator of differentiation 1 isoform 2 [64], ROD1, drug:DMSO): 0.83 log 2
- light to heavy ratio (L/H ratio) of acetylated peptide LTSLNVK(ac)YNNDK (SEQ ID NO: 590) (regulator of differentiation 1 isoform 2 [236], gene ROD1, inhibitor:DMSO): 0.00 log 2
- light to heavy ratio (L/H ratio) of acetylated peptide GWLK(ac)[…] (SEQ ID NO: 278) (triosephosphate isomerase isoform 2 [231], TPI1, TPI1P1, drug:DMSO): 0.00 log 2
